Results on 34 compounds are retold here after ChEMBL document CHEMBL6109047, “Synthesis strategies and anti-parasitic evaluation of novel compounds for chagas disease: Advancing drug discovery through structure-activity relationships” (Eur J Med Chem, 2025).

Data set [1] has as its system Trypanosoma cruzi. The data set is described as follows: Anti-trypanosomal activity against Trypanosoma cruzi Y trypomastigotes infected in mouse RAW264.7 cells assessed as inhibition of parasite release measured for 48 hrs. Type of data set: functional, organism-based. Conditions: RAW264.7, 48 h.
Data set [2] has as its system Trypanosoma cruzi. The data set can be described thus: Antitrypanosomal activity against bloodstream trypomastigote form of Trypanosoma cruzi Y assessed as parasite growth inhibition incubated for 24 hrs by light microscopic analysis. Type of data set: functional, organism-based.
Data set [3] can be described thus: Toxicity in CD-1 mouse infected with Trypanosoma cruzi Y MHOM/MX/1994/INC5 from blood stream trypomastigotes assessed as reduction in parasite growth by measuring lethal concentration. The settings on record: in vivo, 24 h.
Data set [4] in a line: Toxicity in CD-1 mouse infected with Trypanosoma cruzi Y MHOM/MX/1994/NINOA from blood stream trypomastigotes assessed as reduction in parasite growth by measuring lethal concentration. The settings on record: in vivo, 24 h.
Data set [5] concerns Trypanosoma cruzi. The data set is described as follows: Trypanocidal activity against Trypanosoma cruzi NINOA epimastigotes incubated for 24 hrs by Neubauer chamber method. Format: functional, organism-based.
Data set [6] deals with Trypanosoma cruzi. The data set can be described thus: Trypanocidal activity against Trypanosoma cruzi Tulahuen-2 epimastigotes incubated for 24 hrs by Neubauer chamber method. The settings on record: Tulahuen-2, 24 h. Type of data set: functional, organism-based.
The test system of data set [7] is Trypanosoma cruzi. The data set is described as follows: Antitrypanosomal activity against Trypanosoma cruzi Tulahuen-2 infected in […] J774 cells assessed as inhibition of parasite proliferation. Format: functional, organism-based. Conditions: Tulahuen-2, J774.
Data set [8] relates to Trypanosoma cruzi. The data set can be described thus: Antitrypanosomal activity against bloodstream trypomastigote form of Trypanosoma cruzi Y. Format: functional, organism-based.
The test system of data set [9] is Trypanosoma cruzi. The data set can be described thus: Antitrypanosomal activity against bloodstream […] form of Trypanosoma cruzi Y. Type of data set: functional, organism-based.
The subject of data set [10] is Trypanosoma cruzi. The data set can be described thus: Antitrypanosomal activity against Trypanosoma cruzi Y strain trypomastigotes Vero cells assessed as inhibition of parasite growth incubated for 24 hrs by Neubauer chamber based analysis. Type of data set: functional, organism-based.
Data set [11] in a line: Cytotoxicity against rhesus monkey LLC-MK2 cells. Type of data set: toxicity, cell-based, Macaca mulatta.
For data set [12], the system named is Trypanosoma cruzi. The data set is described as follows: Antitrypanosomal activity against Trypanosoma cruzi Tulahuen amastigotes expressing Escherichia coli beta-galactosidase infected in LLC-MK2 cells incubated for 48 hrs. Type of data set: functional, organism-based. The settings on record: LLC-MK2, 48 h.
Data set [13] can be described thus: Toxicity in CD-1 mouse infected with Trypanosoma cruzi Y trypomastigotes assessed as mortality at 50 mg/kg/day, po pre-infected with parasite followed by compound addition and measured after 15 days relative to control. Format: organism-based. Conditions: in vivo, 360 h, time 15 day.
For data set [14], the system named is Trypanosoma cruzi. The data set can be described thus: Antitrypanosomal activity against bloodstream trypomastigote form of Trypanosoma cruzi Y assessed as reduction in parasite growth. Type of data set: functional, organism-based.

Some results are limits rather than exact numbers.

Turning to `O=C1c2ccccc2C(=O)N1C/C(=N/NC(=S)Nc1ccccc1)c1ccc(F)cc1`, in the data set on Trypanosoma cruzi [1], the IC50 – broadly, the concentration that gives 50% inhibition – is 3.75 µM.
`CCOC(=O)c1csc(N/N=C/c2ccccc2Br)n1`: in the data set on Trypanosoma cruzi [2], the IC50 amounted to 830 nM.
As to `Fc1cccc(F)c1CSc1nc2ccccc2s1`, the LC50 (in general, the concentration lethal to half of the exposed cells or organisms) in data set [3] amounted to 260 µM; in data set [4] it was 110 µM.
In the case of `Cc1ccc(OC2=C(Br)C(=O)c3ccccc3C2=O)c(C)c1`, the IC50 in the data set with Trypanosoma cruzi [5] turned out to be 1690 nM; in the data set on Trypanosoma cruzi [6], 0.45 µM; in the data set on Trypanosoma cruzi [7], 51 µM.
On to `Fc1cccc(Nc2cnc3ccccc3c2)c1`, for which the IC50 in the data set with Trypanosoma cruzi [8] was 420 µM; in the data set on Trypanosoma cruzi [6], 13.5 µM; with Trypanosoma cruzi [9], 22.8 µM.
Turning to `c1ccc(CSc2nc3ccccc3s2)cc1`, the LC50 in [3] came to 336 µM; in data set [4], 123 µM.
With `C/C(=N\N=C1\NC(=O)C(c2ccccc2)S1)c1ccc(Cl)cc1Cl` (stereo not given), the IC50 with Trypanosoma cruzi [10] amounted to 1120 nM.
Consider `O=C1c2ccccc2C(=O)c2c1oc1c2CCCC1`, for which the IC50 with Trypanosoma cruzi [8] turned out to be 0.129 µM.
With `COc1ccc(/C(CN2C(=O)c3ccccc3C2=O)=N\Nc2nc(-c3ccc(OC)cc3)cs2)cc1`, the IC50 in the data set on Trypanosoma cruzi [1] is 4.48 µM.
As for `CC(C)(C)C1CCc2oc3c(c2C1)C(=O)c1ccccc1C3=O` (stereo not given), half-maximal inhibition in the data set with Trypanosoma cruzi [8] (IC50) was put at 0.033 µM.
With `O=C1c2ccccc2C(=O)N1C/C(=N/NC(=S)Nc1ccccc1)c1ccc(Cl)cc1Cl`, the IC50 with Trypanosoma cruzi [1] is 3.6 µM.
In the case of `Fc1ccc(Nc2cnc3ccccc3c2)cc1`, the IC50 was 616 µM with Trypanosoma cruzi [8], 11.3 µM in the data set on Trypanosoma cruzi [6] and 10.9 µM in the data set with Trypanosoma cruzi [9].
As for `CCOC(=O)c1csc(N/N=C(\C)c2ccccc2)n1`, the IC50 in the data set with Trypanosoma cruzi [2] amounted to 2830 nM.
With `O=C(Cn1cccc1[N+](=O)[O-])Nc1cccc(C(F)(F)F)c1`, the CC50 (in general, the concentration at which the toxic effect on the cells reaches its halfway point) at 48 h in data set [11] is 2.1 µM.
With `O=C(Cn1ccnc1[N+](=O)[O-])NCc1ccccc1` [BENZNIDAZOLE], the IC50 with Trypanosoma cruzi [8] stood at 91 µM; in the data set with Trypanosoma cruzi [10], 6260 nM; with Trypanosoma cruzi [12], 5.64 µM; in the data set on Trypanosoma cruzi [2], 34500 nM. The compound also yielded a CC50 at 48 h in [11] of 156 µM. Further, the Activity in [13] amounted to 68.3%.
As for `COC(=O)/C=C/c1ccc2c(c1)C(C(=O)OC)C(c1ccc(O)c(OC)c1)O2` (stereo not given), the CC50 at 48 h in [11] came to 0.86 µM. In addition, in the data set with Trypanosoma cruzi [12], 7.96 µM corresponded to half-maximal inhibition (IC50).
On to `C/C(=N\N=C1/NC(=O)C(c2ccccc2)S1)c1cc(Cl)ccc1Cl` (stereo not given), for which, in the data set with Trypanosoma cruzi [10], the IC50 was found to be 850 nM.
In the case of `CC1CCc2oc3c(c2C1)C(=O)c1ccccc1C3=O` (stereo not given), the IC50 in the data set on Trypanosoma cruzi [8] amounted to 0.031 µM.
Turning to `NC(=S)N/N=C(\C=C\c1ccc(Cl)cc1)c1ccccc1`, the IC50 with Trypanosoma cruzi [12] came out at 12.2 µM.
In turn, `O=C1C(=O)c2c(oc3c2CCCC3)-c2ccccc21` showed an IC50 in the data set with Trypanosoma cruzi [8] of 0.064 µM.
As for `CCOC(=O)c1csc(N/N=C/c2ccco2)n1`, the IC50 in the data set with Trypanosoma cruzi [2] is 2750 nM.
`NC(=S)N/N=C/c1c(C(F)(F)F)nn(-c2ccccc2)c1-c1ccc(Br)cc1`: the IC50 in the data set with Trypanosoma cruzi [8] was 30 µM.
As to `Fc1c(F)c(F)c(CSc2nc3ccccc3s2)c(F)c1F`, the LC50 in data set [3] amounted to 185 µM; in data set [4], 147 µM.
`Clc1ccc(Nc2cnc3ccccc3c2)cc1`: the 50% inhibitory concentration (IC50) in the data set with Trypanosoma cruzi [8] is > 500 µM; with Trypanosoma cruzi [6] it was 12 µM; in the data set on Trypanosoma cruzi [9], 25.8 µM.
For `CCC1S/C(=N\N=C(/C)c2ccc(Cl)cc2Cl)NC1=O` (stereo not given), the IC50 in the data set with Trypanosoma cruzi [10] turned out to be 2570 nM.
`CC1CCc2oc3c(c2C1)C(=O)C(=O)c1ccccc1-3` (stereo not given) showed an IC50 in the data set on Trypanosoma cruzi [8] of 0.074 µM.
As for `O=C(N/N=C/c1ccc(F)cc1)c1ccccc1`, the Activity in data set [13] amounted to 46.2%.
On to `COc1cccc(/C=C/c2ccc3cccc(O)c3n2)c1CC(=O)O`, for which the EC50 (commonly the concentration that produces a half-maximal response) with Trypanosoma cruzi [14] is 36 µM.
`CCOC(=O)c1csc(N/N=C/c2cccc(Cl)c2)n1`: in the data set on Trypanosoma cruzi [2], the IC50 stood at 4440 nM.
Take `COc1cc(OC)cc(OC2=C(Oc3cc(OC)cc(OC)c3OC)C(=O)c3ccccc3C2=O)c1`: the IC50 came out at 1300 nM with Trypanosoma cruzi [5], 0.49 µM in the data set on Trypanosoma cruzi [6] and 43 µM in the data set on Trypanosoma cruzi [7].
Turning to `O=C(O)Cc1ccccc1/C=C/c1ccc2cccc(O)c2n1`, the EC50 with Trypanosoma cruzi [14] amounted to 40.8 µM.
In turn, `CS/C(N)=N\N=C\c1c(C(F)(F)F)nn(-c2ccccc2)c1-c1ccc(Br)cc1` came in with an IC50 in the data set with Trypanosoma cruzi [8] of 25.7 µM.
On the same count and under the same terms, then `COc1ccc(-c2c(/C=N/N=C(/N)SC)c(C(F)(F)F)nn2-c2ccccc2)cc1`, with 19.1 µM.
In turn, `COC(=O)/C=C/c1ccc2c(c1)C(C(=O)OC)C(c1ccc(O)cc1)O2` (stereo not given) gave a CC50 at 48 h in data set [11] of 49.9 µM. The IC50 in the data set with Trypanosoma cruzi [12] came out at 11.9 µM; in the data set with Trypanosoma cruzi [9], 3.26 µM.
